Measured values published in US20060002994A1, “Responsive liposomes for ultrasonic drug delivery” (priority 2004, published 2006).
Where two headings read alike, the source gives them in different places.

Columns and labels:
[1] = Critical micelle concentrations (CMC) of detergents; type: physicochemical; details: source not stated
Excerpt: RESULTS: Some ethylene glycol-containing surfactants can cause enhanced release of a self-quenching fluorescent marker dye from liposomes under 20 kHz ultrasound stimulation.[19] In FIG. 4, the rate of fluorescence increase caused by release of liposomally-entrapped calcein dye is shown in liposomes treated with five different surfactants. The total surfactant concentrations were normalized to the CMCs (Table 1, below). CMCs for TRITON® X-100, TRITON® X-405, PLURONIC® P-105 [20] and TWEEN® 80 were obtained from the literature. All surfactants, except DPPE-PEG2000, were dissolved in the buffer prior to the introduction of the liposomes. DPPE-PEG2000 was incorporated into the liposomes prior to extrusion. For all surfactants except TRITON® X-100, the rate of fluorescence increase in the absence of ultrasound was <0.04% per second, i.e., off the bottom of the figure. (At the higher TRITON® X-100 concentrations, the spontaneous leakage was >0.11% per second.) All of the surfactants induced about a 10-15 fold increase in the response to 20 kHz ultrasound. More remarkably, the surfactants reached maximal effectiveness at concentrations of about 1% of the critical micelle concentration. […] Furthermore, the different surfactants plateau at different levels. […]

[2] = Estimated partition coefficients (K) of detergents into the lipid membrane; type: physicochemical; details: estimated as inverse of CMC; P-105 at 37° C.
Excerpt: Critical micelle concentrations (CMC) and estimated partition coefficients (K) of several detergents assayed. For membrane-solubilizing detergents, the product of the CMC and the partition coefficient is of order unity.

[3] = obtained from the literature; P-105 at 37° C.; cited from earlier work

Substance | CMC [1] [µM] | K (estimated partition coefficient) [2] [M⁻¹] | CMC [3] [µM]
1,2-dipalmitoyl-sn-glycero-3-phosphoethanolamine-N-methoxy(polyethylene glycol)2000 [DPPE-PEG2000, reference compound] | 70 | 14300 | –
TWEEN ® 20 | 80 | 12500 | –
TWEEN ® 80 | – | 10000 | 100
